Experimental data published in ChEMBL document CHEMBL4007384, “Synthesis and optimization of furano[3,2-d]pyrimidines as selective spleen tyrosine kinase (Syk) inhibitors” (Bioorg Med Chem Lett, 2016).

Columns and labels:
[1] = target: Mitogen-activated protein kinase kinase kinase kinase 4 (Homo sapiens, UniProt O95819); assay: Inhibition of MAP4K4 (unknown origin) after 60 mins by TR-FRET assay
[2] = target: Mitogen-activated protein kinase 8 (Homo sapiens, UniProt P45983); assay: Inhibition of JNK1 (unknown origin) after 60 mins by TR-FRET assay
[3] = target: T1, Serine/threonine-protein kinase TBK1 (Homo sapiens, UniProt Q9UHD2); assay: Inhibition of TBK1 (unknown origin) after 60 mins by TR-FRET assay
T1 sequence (Q9UHD2 whole entry): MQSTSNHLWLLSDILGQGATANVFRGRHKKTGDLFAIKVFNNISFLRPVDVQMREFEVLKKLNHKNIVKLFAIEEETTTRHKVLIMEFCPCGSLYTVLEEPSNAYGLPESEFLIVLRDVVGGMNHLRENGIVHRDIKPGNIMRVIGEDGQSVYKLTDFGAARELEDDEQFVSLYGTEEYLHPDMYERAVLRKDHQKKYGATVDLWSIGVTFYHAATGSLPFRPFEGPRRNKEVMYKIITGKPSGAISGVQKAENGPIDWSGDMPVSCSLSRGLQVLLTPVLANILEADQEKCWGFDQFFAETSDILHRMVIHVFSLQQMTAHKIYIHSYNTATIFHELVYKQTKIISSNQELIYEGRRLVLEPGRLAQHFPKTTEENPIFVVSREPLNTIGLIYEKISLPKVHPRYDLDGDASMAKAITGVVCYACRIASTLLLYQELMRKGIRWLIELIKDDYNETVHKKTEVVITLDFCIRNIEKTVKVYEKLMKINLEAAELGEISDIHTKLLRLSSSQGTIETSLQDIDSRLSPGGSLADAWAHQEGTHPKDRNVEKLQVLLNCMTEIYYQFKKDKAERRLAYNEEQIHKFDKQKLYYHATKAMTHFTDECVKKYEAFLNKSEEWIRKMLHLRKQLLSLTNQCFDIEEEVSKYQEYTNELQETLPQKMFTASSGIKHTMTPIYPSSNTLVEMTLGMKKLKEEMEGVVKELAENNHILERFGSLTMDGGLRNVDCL

[4] = target: Dual specificity tyrosine-phosphorylation-regulated kinase 1B (Homo sapiens, UniProt Q9Y463); assay: Inhibition of DYRK1B (unknown origin) after 60 mins by TR-FRET assay
[5] = target: T2, Inhibitor of nuclear factor kappa-B kinase subunit epsilon (Homo sapiens, UniProt Q14164); assay: Inhibition of IKKE (unknown origin) after 60 mins by TR-FRET assay
T2 sequence (Q14164 whole entry): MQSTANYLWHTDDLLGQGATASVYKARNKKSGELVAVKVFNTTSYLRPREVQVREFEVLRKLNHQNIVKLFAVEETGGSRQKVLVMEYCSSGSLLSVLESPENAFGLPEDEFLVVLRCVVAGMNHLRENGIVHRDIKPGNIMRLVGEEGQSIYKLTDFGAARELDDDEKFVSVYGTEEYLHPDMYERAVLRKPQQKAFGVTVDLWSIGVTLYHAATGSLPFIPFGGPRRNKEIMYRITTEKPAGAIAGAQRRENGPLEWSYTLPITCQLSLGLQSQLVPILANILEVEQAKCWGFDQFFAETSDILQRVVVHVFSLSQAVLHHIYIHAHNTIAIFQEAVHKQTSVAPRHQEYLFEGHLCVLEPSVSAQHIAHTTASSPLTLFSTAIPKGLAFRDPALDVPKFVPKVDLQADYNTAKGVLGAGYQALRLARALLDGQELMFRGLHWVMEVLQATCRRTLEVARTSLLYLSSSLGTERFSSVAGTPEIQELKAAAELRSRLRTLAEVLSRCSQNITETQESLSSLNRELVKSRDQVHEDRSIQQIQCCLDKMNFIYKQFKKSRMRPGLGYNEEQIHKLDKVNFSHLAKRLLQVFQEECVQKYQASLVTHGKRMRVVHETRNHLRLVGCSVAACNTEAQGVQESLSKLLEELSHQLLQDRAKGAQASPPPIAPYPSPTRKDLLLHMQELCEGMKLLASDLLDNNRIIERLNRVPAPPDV

[6] = target: T3, Serine/threonine-protein kinase D3 (Homo sapiens, UniProt O94806); assay: Inhibition of Prkcn (unknown origin) after 60 mins by TR-FRET assay
T3 sequence (O94806 whole entry): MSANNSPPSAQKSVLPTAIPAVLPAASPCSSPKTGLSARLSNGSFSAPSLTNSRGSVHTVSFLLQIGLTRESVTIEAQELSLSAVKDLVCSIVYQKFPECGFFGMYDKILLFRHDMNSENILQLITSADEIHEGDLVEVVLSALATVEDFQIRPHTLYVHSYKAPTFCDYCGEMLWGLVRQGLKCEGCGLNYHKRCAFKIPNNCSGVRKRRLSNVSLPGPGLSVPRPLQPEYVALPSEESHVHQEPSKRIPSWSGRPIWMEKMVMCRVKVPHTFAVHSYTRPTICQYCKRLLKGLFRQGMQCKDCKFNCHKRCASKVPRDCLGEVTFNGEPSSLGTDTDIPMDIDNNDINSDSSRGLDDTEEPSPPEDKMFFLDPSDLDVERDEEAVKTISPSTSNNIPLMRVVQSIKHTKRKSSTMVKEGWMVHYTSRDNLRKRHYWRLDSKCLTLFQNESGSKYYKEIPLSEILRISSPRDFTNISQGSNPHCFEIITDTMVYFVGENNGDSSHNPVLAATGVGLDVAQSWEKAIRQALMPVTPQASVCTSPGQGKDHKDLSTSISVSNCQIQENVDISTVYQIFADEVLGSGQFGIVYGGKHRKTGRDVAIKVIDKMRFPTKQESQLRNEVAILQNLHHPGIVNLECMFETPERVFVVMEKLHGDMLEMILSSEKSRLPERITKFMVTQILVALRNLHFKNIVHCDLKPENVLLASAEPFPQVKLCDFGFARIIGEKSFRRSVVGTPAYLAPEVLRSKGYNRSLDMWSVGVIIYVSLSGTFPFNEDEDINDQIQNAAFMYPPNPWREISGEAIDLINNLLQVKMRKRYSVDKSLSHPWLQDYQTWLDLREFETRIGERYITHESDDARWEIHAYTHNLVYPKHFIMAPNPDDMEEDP

Wee1-like protein kinase = Wee1-like protein kinase (Homo sapiens, UniProt P30291); assay: Inhibition of Wee1 (unknown origin) after 60 mins by TR-FRET assay
[7] = target: Serine/threonine-protein kinase pim-1 (Homo sapiens, UniProt P11309); assay: Inhibition of PIM1 (unknown origin) after 60 mins by TR-FRET assay
[8] = target: Dual specificity mitogen-activated protein kinase kinase 2 (Homo sapiens, UniProt P36507); assay: Inhibition of MEK2 (unknown origin) after 60 mins by TR-FRET assay
[9] = target: Tyrosine-protein kinase SYK (Homo sapiens, UniProt P43405)
Description: Inhibition of Syk in human Ramos B cells assessed as decrease in intracellular calcium flux measured for 3.5 mins by calcium-5 dye based FLIPR assay

[10] = Unbound clearance in rat microsomes; type: ADME, Microsome
[11] = target: Tyrosine-protein kinase Lck (Homo sapiens, UniProt P06239); assay: Inhibition of Lck (unknown origin) after 60 mins by TR-FRET assay
[12] = target: Ribosomal protein S6 kinase alpha-3 (Homo sapiens, UniProt P51812); assay: Inhibition of RSK2 (unknown origin) after 60 mins by TR-FRET assay
Sequence of Ribosomal protein S6 kinase alpha-3 (P51812 whole entry): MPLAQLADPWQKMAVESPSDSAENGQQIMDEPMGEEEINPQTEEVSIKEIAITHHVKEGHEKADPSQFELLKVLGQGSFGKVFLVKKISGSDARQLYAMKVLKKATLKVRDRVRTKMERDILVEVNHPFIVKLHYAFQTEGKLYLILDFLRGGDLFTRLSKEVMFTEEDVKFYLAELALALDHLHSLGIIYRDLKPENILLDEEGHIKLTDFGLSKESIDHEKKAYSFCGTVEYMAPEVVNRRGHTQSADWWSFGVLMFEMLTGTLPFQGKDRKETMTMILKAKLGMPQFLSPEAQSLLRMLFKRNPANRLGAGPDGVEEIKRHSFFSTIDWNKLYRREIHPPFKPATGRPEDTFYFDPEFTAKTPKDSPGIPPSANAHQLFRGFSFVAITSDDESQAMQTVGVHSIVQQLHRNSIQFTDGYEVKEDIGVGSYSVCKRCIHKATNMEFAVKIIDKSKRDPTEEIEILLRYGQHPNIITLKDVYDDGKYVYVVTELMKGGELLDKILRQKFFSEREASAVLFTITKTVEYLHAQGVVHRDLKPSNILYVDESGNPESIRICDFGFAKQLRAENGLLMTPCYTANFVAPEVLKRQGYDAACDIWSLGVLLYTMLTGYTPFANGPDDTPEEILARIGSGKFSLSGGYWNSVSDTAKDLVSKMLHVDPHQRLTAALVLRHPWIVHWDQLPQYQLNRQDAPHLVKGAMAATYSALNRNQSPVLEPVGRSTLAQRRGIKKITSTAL

Sequence of Mitogen-activated protein kinase 8 (P45983 whole entry): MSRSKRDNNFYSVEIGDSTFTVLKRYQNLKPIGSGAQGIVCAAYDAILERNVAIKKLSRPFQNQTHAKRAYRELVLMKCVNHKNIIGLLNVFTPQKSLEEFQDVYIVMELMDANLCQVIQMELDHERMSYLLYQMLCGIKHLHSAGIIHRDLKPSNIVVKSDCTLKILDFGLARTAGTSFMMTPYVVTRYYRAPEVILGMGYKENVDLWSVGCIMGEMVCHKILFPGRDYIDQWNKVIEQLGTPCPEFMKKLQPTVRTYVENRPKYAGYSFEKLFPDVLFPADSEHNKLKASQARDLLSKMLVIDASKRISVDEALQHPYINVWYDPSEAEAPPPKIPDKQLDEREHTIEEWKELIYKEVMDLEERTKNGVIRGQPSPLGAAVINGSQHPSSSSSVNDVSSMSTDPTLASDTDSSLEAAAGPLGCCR
Sequence of Mitogen-activated protein kinase kinase kinase kinase 4 (O95819 whole entry): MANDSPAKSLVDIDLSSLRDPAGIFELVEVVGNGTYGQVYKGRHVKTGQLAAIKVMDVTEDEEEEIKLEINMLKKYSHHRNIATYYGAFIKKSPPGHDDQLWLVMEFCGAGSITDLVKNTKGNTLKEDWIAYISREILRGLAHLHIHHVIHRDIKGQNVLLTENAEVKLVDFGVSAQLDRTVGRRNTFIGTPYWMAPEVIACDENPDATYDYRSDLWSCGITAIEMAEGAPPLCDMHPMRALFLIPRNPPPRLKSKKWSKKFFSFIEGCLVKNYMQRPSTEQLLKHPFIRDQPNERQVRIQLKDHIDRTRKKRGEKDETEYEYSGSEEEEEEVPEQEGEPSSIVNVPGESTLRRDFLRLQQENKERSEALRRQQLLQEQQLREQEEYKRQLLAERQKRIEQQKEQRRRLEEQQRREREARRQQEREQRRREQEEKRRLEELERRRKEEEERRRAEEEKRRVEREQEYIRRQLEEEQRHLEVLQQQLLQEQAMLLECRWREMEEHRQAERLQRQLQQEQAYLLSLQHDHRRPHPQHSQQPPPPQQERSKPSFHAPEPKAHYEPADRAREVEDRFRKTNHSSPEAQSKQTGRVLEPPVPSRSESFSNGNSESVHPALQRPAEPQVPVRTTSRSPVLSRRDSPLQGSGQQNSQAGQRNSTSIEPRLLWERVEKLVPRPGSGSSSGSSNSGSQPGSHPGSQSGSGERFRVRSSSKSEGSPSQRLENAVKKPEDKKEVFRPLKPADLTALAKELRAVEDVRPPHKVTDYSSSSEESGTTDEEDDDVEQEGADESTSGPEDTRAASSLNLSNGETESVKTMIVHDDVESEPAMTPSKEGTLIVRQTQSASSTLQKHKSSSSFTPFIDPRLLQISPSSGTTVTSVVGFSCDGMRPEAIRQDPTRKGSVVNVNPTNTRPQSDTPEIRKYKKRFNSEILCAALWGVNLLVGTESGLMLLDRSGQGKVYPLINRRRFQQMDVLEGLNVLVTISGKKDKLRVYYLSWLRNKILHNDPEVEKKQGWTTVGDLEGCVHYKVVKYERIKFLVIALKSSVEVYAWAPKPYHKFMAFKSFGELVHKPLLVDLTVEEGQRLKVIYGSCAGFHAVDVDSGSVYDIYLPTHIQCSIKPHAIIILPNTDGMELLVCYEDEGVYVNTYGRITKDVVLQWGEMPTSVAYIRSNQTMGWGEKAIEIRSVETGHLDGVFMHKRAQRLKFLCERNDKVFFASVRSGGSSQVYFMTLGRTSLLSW
Sequence of Serine/threonine-protein kinase pim-1 (P11309 whole entry): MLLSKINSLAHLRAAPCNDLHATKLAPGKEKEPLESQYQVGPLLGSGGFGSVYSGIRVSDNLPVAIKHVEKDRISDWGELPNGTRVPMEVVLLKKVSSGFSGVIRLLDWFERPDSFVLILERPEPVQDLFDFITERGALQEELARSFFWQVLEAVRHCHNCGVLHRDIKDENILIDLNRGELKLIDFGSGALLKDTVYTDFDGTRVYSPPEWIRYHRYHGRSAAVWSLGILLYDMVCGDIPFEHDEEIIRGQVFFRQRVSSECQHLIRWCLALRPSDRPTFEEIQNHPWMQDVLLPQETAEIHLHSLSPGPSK
Sequence of Dual specificity mitogen-activated protein kinase kinase 2 (P36507 whole entry): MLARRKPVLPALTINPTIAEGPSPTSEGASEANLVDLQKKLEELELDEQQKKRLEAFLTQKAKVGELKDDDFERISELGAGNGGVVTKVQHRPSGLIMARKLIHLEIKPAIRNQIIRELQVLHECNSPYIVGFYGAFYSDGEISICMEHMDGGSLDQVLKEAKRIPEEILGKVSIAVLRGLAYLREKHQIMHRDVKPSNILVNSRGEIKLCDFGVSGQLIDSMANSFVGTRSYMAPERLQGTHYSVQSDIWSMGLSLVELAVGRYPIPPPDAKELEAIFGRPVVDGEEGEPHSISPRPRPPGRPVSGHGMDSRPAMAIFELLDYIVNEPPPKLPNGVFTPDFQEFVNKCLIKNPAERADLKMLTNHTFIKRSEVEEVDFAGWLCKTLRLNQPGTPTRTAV
Sequence of Dual specificity tyrosine-phosphorylation-regulated kinase 1B (Q9Y463 whole entry): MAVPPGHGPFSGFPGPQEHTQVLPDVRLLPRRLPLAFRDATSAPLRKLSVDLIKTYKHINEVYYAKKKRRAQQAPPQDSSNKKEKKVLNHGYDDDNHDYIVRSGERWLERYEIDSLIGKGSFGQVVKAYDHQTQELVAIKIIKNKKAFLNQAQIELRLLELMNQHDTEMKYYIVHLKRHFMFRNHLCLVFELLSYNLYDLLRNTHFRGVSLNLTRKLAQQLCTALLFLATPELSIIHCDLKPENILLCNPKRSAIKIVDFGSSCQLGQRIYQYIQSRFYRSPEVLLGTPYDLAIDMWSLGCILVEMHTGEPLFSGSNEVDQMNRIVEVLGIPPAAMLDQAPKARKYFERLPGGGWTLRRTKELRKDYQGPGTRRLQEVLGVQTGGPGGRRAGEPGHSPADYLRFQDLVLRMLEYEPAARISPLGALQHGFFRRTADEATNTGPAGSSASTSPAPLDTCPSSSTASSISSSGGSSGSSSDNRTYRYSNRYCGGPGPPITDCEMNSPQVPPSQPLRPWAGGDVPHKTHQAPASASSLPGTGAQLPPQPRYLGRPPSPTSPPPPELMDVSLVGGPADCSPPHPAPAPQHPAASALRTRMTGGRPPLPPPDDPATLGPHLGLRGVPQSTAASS
Sequence of Tyrosine-protein kinase Lck (P06239 whole entry): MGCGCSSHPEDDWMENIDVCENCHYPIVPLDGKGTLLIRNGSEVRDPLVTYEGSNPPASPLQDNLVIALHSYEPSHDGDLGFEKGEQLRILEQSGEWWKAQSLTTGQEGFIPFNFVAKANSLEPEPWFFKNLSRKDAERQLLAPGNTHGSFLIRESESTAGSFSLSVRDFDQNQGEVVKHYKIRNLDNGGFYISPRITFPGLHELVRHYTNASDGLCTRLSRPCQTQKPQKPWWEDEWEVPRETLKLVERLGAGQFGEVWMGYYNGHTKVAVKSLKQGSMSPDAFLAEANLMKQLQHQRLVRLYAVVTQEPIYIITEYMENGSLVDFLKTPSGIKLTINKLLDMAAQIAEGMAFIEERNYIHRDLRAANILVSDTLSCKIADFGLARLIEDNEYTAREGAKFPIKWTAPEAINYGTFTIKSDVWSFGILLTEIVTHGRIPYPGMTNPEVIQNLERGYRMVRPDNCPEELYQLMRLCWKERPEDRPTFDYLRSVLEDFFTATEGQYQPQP
Sequence of Wee1-like protein kinase (P30291 whole entry): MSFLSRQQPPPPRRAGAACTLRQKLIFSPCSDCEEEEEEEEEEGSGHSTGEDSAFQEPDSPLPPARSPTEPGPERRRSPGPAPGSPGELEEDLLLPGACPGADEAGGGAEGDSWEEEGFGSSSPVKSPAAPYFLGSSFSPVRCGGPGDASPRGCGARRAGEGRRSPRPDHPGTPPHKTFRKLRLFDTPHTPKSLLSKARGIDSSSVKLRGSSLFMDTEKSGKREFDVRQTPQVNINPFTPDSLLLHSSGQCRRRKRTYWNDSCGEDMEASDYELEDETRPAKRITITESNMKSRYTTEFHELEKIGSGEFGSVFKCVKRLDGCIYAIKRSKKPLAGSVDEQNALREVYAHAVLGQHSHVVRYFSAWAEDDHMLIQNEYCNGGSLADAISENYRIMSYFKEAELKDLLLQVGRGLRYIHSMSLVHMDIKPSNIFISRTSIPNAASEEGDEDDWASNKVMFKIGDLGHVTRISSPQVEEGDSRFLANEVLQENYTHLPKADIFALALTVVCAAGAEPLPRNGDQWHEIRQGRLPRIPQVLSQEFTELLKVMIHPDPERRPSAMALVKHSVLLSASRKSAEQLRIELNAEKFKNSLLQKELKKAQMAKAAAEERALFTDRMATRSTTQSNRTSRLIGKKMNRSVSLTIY

Row | SMILES | IC50 [1] | IC50 [2] | IC50 [3] | IC50 [4] | IC50 [5] | IC50 [6] | IC50 (Wee1-like protein kinase) | IC50 [7] | IC50 [8] | EC50 [9] | CL free [10] | IC50 [11] | IC50 [12]
1 | Cc1n[nH]c2cc(Nc3nc(NC4CC4)c4occc4n3)ccc12 | 9.43 µM | 2.75 µM | > 10 µM | > 10 µM | > 10 µM | > 10 µM | > 10 µM | > 10 µM | > 10 µM | – | – | – | –
2 | FC(F)(F)CNc1nc(Nc2ccc3cn[nH]c3c2)nc2ccoc12 | > 10 µM | 2.89 µM | > 10 µM | – | > 10 µM | > 10 µM | > 10 µM | 1.36 µM | > 10 µM | 0.235 µM | 255 mL/min/kg | 7.79 µM | 9.81 µM
3 | CC1(C)OCC(=O)Nc2cc(Nc3nc(NCC(F)(F)F)c4occc4n3)ccc21 | > 10 µM | 2.67 µM | 7.61 µM | > 10 µM | 3.43 µM | > 10 µM | 9.88 µM | > 10 µM | > 10 µM | 0.017 µM | < 81.7 mL/min/kg | 0.699 µM | > 10 µM
4 | FC(F)(F)CNc1nc(Nc2ccc(N3CCOCC3)c(Cl)c2)nc2ccoc12 | > 10 µM | 0.513 µM | > 10 µM | > 10 µM | > 10 µM | > 10 µM | > 10 µM | > 10 µM | > 10 µM | 0.117 µM | 1600 mL/min/kg | 3.7 µM | > 10 µM
